# In patent US20110212142A1, “CURCUMINOIDS AND ITS METABOLITES FOR THE APPLICATION IN OCULAR DISEASES” (LAILA PHARMACEUTICALS PVT.LTD., priority 2008, published 2011):
# Like-named read-outs stand apart in the source and are kept apart here.
# Experiment: Particle size distribution study (Malvern particle size analyzer, laser diffraction)
# Assay type: physicochemical
# Description: The study was conducted using Malvern particle size analyzer. The map of scattering intensity versus angle is the primary source of information used to calculate the particle size. The scattering of particles is accurately predicted by the Mie scattering model allowing accurate sizing across the widest possible dynamic range. During the laser diffraction measurement, particles are passed through a focused laser beam. These particles scatter light at an angle that is inversely proportional to their size. The angular intensity of the scattered light is then measured by a series of photosensitive detectors. The advantage of this study is that there is no sample preparation involved.
# This is a clear indication that the process of nanoemulsification followed has effectively transformed the large sized particles to nanosized coated curcuminoid particles. Additional peaks can be observed which is contributed by the high molecular weight excipients used to prepare the formulation.
smiles,measurement,setting,value
"COc1cc(/C=C/C(=O)CC(=O)/C=C/c2ccc(O)c(OC)c2)ccc1O [unformulated curcumin 98%, curcumin]",particle size,,373 nm
same,particle size,listed as unformulated curcumin,374 nm
